Measured values published in patent US20110160223A1, “NMDA Receptor Antagonists for the Treatment of Neuropsychiatric Disorders” (priority 2008, published 2011).
Read-outs that look alike come from different tables or passages of the source.

Assays:
[1] = target: NMDA receptor (NR1 + NR2 subunits) (Rattus norvegicus, UniProt P35439+Q00960); assay: Two electrode voltage clamp recording from Xenopus laevis oocytes (pH dependence of NMDA antagonism); format: cell-based
Experimental: cRNA was synthesized from linearized template cDNA for rat glutamate receptor subunits according to manufacturer specifications (Ambion). Quality of synthesized cRNA was assessed by gel electrophoresis, and quantity was estimated by spectroscopy and gel electrophoresis. Stage V and VI oocytes were surgically removed from the ovaries of large, well-fed and healthy Xenopus laevis anesthetized with 3-amino-benzoic acid ethyl ester (3 gm/l) as previously described. Clusters of isolated oocytes were incubated with 292 U/ml Worthington (Freehold, N.J.) type IV collagenase or 1.3 mg/ml collagenase (Life Technologies, Gaithersburg, Md.; 17018-029) for 2 hr in Ca^2+-free solution comprised of (in mM) 115 NaCl, 2.5 KCl, and 10 HEPES, pH 7.5, with slow agitation to remove the follicular cell layer. Oocytes were then washed extensively in the same solution supplemented with 1.8 mM CaCl2 and maintained in Barth's solution comprised of (in mM): 88 NaCl, 1 KCl, 2.4 NaHCO3, 10 HEPES, 0.82 MgSO4, 0.33 Ca(NO3)2, and 0.91 CaCl2 and supplemented with 100 μg/ml gentamycin, 10 μg/ml streptomycin, and 10 μg/ml penicillin. Oocytes were manually defolliculated and injected within 24 hrs of isolation with 3-5 ng of NR1 subunit cRNA and 7-10 ng of NR2 cRNA subunit in a 50 nl volume, or 5-10 ng of AMPA or kainate receptor cRNAs in a 50 nl volume, and incubated in Barth's solution at 18° C. for 1-7 d. Glass injection pipettes had tip sizes ranging from 10-20 microns, and were backfilled with mineral oil.
Two electrode voltage-clamp recordings were made 2-7 days post-injection as previously described. Oocytes were placed in a dual-track plexiglass recording chamber with a single perfusion line that splits in a Y-configuration to perfuse two oocytes. Dual recordings were made at room temperature (23° C.) using two Warner OC725B two-electrode voltage clamp amplifiers, arranged as recommended by the manufacturer. Glass microelectrodes (1-10 Megaohms) were filled with 300 mM KCl (voltage electrode) or 3 M KCl (current electrode). The bath clamps communicated across silver chloride wires placed into each side of the recording chamber, both of which were assumed to be at a reference potential of 0 mV. Oocytes were perfused with a solution comprised of (in mM) 90 NaCl, 1 KCl, 10 HEPES, and 0.5 BaCl2; pH was adjusted by addition of 1-3 M NaOH of HCl. Oocytes were recorded under voltage clamp at −40 mV. Final concentrations for control application of glutamate (50 μM) plus glycine (30 μM) were achieved by adding appropriate volumes from 100 and 30 mM stock solutions, respectively. In addition, 10 μM final EDTA was obtained by adding a 1:1000 dilution of 10 mM EDTA, in order to chelate contaminant divalent ions such as Zn^2+. Concentration-response curves for experimental compounds were obtained by applying in successive fashion maximal glutamate/glycine, followed by glutamate/glycine plus variable concentrations of experimental compounds. Dose response curves consisting of 4 to 8 concentrations were obtained in this manner. The baseline leak current at −40 mV was measured before and after recording, and the full recording linearly corrected for any change in leak current. Oocytes with glutamate-evoked responses smaller than 50 nA were not included in the analysis. The level of inhibition by applied experimental compounds was expressed as a percent of the initial glutamate response, and averaged together across oocytes from a single frog. Each experiment consisted of recordings from 3 to 10 oocytes obtained from a single frog. Results from 3-6 experiments were pooled, and the average percent responses at antagonist concentrations were fitted by the equation,
Percent Response=(100−minimum)/(1+([conc]/IC50)^nH)+minimum […]

[2] = Plasma half-life (i.v./i.p. pharmacokinetics, Table 23); format: in vivo, Rats; settings: rat; for AUC(0-t): read-out: AUC (0-last h) i.v. XMPK; for Cmax at 30 min: 30 m
Experimental: Animals were fasted overnight prior to dose administration and food returned to the animals two hours after dosing. Following IV dosing, blood samples (ca 200 μL) were collected into separate tubes containing anticoagulant (K-EDTA) via the orbital plexus at various times post administration. Plasma samples were prepared immediately after collection by centrifugation for ten minutes using a tabletop centrifuge, and stored at −80° C. Brain tissue was weighed, homogenized on ice in 50 mM phosphate buffer (2 ml per brain) and the homogenate stored at −80° C. Plasma and brain homogenate samples were extracted by the addition of 5 volumes of cold acetonitrile, mixed well by vortexing and centrifuged at 4000 rpm for 15 minutes. The supernatant fractions were analyzed by LC-MS/MS operating in multiple reaction monitoring mode (MRM). The amount of parent compound in each sample was calculated by comparing the response of the analyte in the sample to that of a standard curve.

[3] = Oral absorption (p.o. pharmacokinetics, Table 25); format: in vivo, Rats; settings: rat, plasma; for bioavailability: read-out: % Absorbed (% F); for AUC(0-t): read-out: AUC (0-last h) p.o.
[4] = pH 6.9, Table 20, read-out: IC50 at pH 6.9
[5] = pH 7.6, Table 20, read-out: IC50 at pH 7.6
[6] = pH 6.9, Table 21, read-out: IC50 at pH 6.9
[7] = pH 7.6, Table 21, read-out: IC50 at pH 7.6
[8] = iv, 1 mg/kg, 1 MPK, 0-4 hr i.v.
[9] = iv, 1 mg/kg, 1 MPK, 0-6 hr i.v.

NMDA receptor (NR1 + NR2 subunits), sequence (Q00960 27-1482, other chains not shown): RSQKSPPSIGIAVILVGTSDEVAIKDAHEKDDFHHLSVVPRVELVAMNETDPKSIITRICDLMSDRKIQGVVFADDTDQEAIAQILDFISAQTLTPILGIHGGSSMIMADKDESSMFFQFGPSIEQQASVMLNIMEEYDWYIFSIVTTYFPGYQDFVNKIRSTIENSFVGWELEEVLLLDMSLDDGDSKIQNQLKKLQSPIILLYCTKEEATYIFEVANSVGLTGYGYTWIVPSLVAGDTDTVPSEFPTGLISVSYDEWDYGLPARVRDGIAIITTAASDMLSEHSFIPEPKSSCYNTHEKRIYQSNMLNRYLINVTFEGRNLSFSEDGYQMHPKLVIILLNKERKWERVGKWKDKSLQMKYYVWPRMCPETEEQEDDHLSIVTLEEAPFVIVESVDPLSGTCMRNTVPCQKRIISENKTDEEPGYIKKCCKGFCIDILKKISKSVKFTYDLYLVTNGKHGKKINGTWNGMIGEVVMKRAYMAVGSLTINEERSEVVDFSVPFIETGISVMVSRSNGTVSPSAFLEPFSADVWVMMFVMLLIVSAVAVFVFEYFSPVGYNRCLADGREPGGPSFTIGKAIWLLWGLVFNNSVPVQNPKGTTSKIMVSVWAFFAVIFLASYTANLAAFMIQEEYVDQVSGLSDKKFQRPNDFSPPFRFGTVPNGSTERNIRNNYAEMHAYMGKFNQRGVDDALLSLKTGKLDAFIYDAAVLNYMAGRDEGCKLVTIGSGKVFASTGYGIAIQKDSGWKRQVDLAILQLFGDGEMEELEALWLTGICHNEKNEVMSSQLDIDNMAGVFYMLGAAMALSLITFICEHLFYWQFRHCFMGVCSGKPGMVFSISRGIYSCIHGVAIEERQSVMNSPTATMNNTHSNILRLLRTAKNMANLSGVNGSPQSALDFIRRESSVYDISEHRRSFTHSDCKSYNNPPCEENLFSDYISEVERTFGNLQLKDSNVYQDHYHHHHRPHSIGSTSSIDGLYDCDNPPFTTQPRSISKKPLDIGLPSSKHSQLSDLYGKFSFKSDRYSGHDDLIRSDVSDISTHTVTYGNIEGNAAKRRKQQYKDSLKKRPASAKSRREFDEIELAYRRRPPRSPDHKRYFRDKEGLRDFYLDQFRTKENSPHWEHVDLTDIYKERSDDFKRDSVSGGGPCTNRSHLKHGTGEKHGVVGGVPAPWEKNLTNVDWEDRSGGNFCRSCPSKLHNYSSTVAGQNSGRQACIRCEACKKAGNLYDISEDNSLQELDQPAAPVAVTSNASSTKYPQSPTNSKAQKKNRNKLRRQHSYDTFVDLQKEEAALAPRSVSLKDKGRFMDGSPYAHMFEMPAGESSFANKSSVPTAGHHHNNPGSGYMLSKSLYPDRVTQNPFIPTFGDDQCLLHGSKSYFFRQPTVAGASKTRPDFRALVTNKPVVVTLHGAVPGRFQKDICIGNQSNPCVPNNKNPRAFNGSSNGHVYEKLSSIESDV

SMILES: C=C(COc1ccc(NC(N)=O)cc1)CN1CCN(c2ccc(F)c(F)c2)CC1
- IC50 [1, 4]: 557 nM
- IC50 [1, 5]: 10400 nM

SMILES: NC(=O)Nc1ccc(OCCCN2CCN(c3ccc(F)cc3)CC2)cc1
- IC50 [1, 4]: 117 nM
- IC50 [1, 5]: 625 nM

SMILES: CS(=O)(=O)Nc1ccc(CCC(=O)NCCNc2ccc(Cl)c(Cl)c2)cc1
- IC50 [1, 6]: 30 nM
- IC50 [1, 7]: 55 nM

SMILES: CS(=O)(=O)Nc1ccc(CCCNCCNc2ccc(Cl)c(Cl)c2)cc1
- IC50 [1, 6]: 2 nM
- IC50 [1, 7]: 21 nM

SMILES: CS(=O)(=O)Nc1ccc(CCCN2CCN(c3ccc(Cl)c(Cl)c3)C2=O)cc1
- IC50 [1, 6]: 160 nM
- IC50 [1, 7]: 809 nM

SMILES: CS(=O)(=O)Nc1ccc(OCC(=O)NCCNc2ccc(Cl)c(Cl)c2)cc1
- IC50 [1, 6]: 13 nM
- IC50 [1, 7]: 58 nM

SMILES: CS(=O)(=O)Nc1ccc(OCCNCCNc2ccc(Cl)c(Cl)c2)cc1
- IC50 [1, 6]: 14 nM
- IC50 [1, 7]: 36 nM

SMILES: CS(=O)(=O)Nc1ccc(CCC(=O)N2CCN(c3ccc(Cl)c(Cl)c3)CC2)cc1
- IC50 [1, 6]: 670 nM
- IC50 [1, 7]: 5330 nM

SMILES: CS(=O)(=O)Nc1ccc(CCC(=O)N2CCN(c3ccc(F)c(F)c3)CC2)cc1
- IC50 [1, 6]: 2200 nM
- IC50 [1, 7]: 8400 nM

SMILES: CS(=O)(=O)Nc1ccc(CCCN2CCN(c3ccc(Cl)c(Cl)c3)CC2)cc1
- IC50 [1, 6]: 230 nM
- IC50 [1, 7]: 2730 nM

SMILES: CS(=O)(=O)Nc1ccc(OCC(=O)N2CCN(c3ccc(Cl)c(Cl)c3)CC2)cc1
- IC50 [1, 6]: 40 nM
- IC50 [1, 7]: 129 nM

SMILES: O=C(COc1ccc2[nH]c(=O)oc2c1)N1CCN(c2ccc(F)c(F)c2)CC1
- IC50 [1, 6]: 307 nM
- IC50 [1, 7]: 467 nM

SMILES: O=C(COc1ccc2[nH]c(=O)oc2c1)N1CCN(c2ccc(Cl)cc2)CC1
- IC50 [1, 6]: 189 nM
- IC50 [1, 7]: 243 nM

SMILES: O=C(COc1ccc2[nH]c(=O)oc2c1)NCCNc1ccc(Cl)c(Cl)c1
- IC50 [1, 6]: 80 nM
- IC50 [1, 7]: 150 nM

SMILES: CS(=O)(=O)Nc1ccc(CCC(=O)NC/C=C/c2ccc(Cl)c(Cl)c2)cc1
- IC50 [1, 6]: 10 nM
- IC50 [1, 7]: 70 nM

SMILES: O=C(COc1ccc(O)cc1)NCCNc1ccc(Cl)c(Cl)c1
- IC50 [1, 6]: 280 nM
- IC50 [1, 7]: 515 nM

SMILES: O=C(CCc1ccc(O)cc1)NCCNc1ccc(Cl)c(Cl)c1
- IC50 [1, 6]: 210 nM
- IC50 [1, 7]: 339 nM

SMILES: O[C@H](COc1ccc2[nH]ccc2c1)CN1CCN(c2ccc(Cl)cc2)CC1
- IC50 ([1]; pH 6.9, Table 22, read-out: IC50 pH 6.9): > 10000 nM
- IC50 ([1]; pH 7.6, Table 22, read-out: IC50 pH 7.6): > 10000 nM

SMILES: CS(=O)(=O)Nc1ccc(OC[C@@H](O)CN2CCN(c3ccc(Cl)c(Cl)c3)CC2)cc1
- Cmax ([2]; iv, 3 mg/kg, 3MPK i.v.): 1070 ng/mL
- AUC(0-t) ([2]; iv, 3 mg/kg, 3MPK, 0-4 hr i.v.): 2350 ng·h/mL

SMILES: NC(=O)Nc1ccc(OC[C@@H](O)CN2CCN(c3ccc(Cl)cc3)CC2)cc1 [drawing 755]
- IC50 [1, 4]: 46 nM
- IC50 [1, 5]: 452 nM

SMILES: O=C(COc1ccc2[nH]c(=O)oc2c1)N1CCN(c2ccc(Cl)c(Cl)c2)CC1 [drawing 768]
- IC50 [1, 6]: 41 nM
- IC50 [1, 7]: 45 nM

SMILES: NC(=O)Nc1ccc(OC[C@@H](O)CN2CCN(c3ccc(Cl)cc3)CC2)cc1 [drawing 786]
- Cmax ([2]; iv, 1 mg/kg, 1 MPK i.v.): 252 ng/mL
- AUC(0-t) [2, 8]: 1030 ng·h/mL

SMILES: O=c1[nH]c2ccc(OC[C@@H](O)CN3CCN(c4ccc(F)c(F)c4)CC3)cc2[nH]1 [drawing 787]
- Cmax ([2]; iv, 1 mg/kg, 1 MPK i.v.): 241 ng/mL
- AUC(0-t) [2, 9]: 452 ng·h/mL

SMILES: CS(=O)(=O)Nc1ccc(OC[C@@H](O)CN2CCN(c3ccc(F)c(F)c3)CC2)cc1 [drawing 789]
- Cmax at 30 min ([2]; ip, 60 mg/kg, 60 MPK): 13400 ng/mL
- Cmax at 2 hr ([2]; ip, 60 mg/kg, 60 MPK, 2 hr): 13100 ng/mL

SMILES: Cc1ccc(N2CCN(C[C@H](O)COc3ccc4c(c3)CCC(=O)N4)CC2)cc1 [drawing 790]
- Cmax ([2]; iv, 1 mg/kg, 1 MPK i.v.): 464 ng/mL
- AUC(0-t) [2, 9]: 347 ng·h/mL

SMILES: Oc1ccc(OC[C@@H](O)CN2CCN(c3ccc(Cl)cc3)CC2)cc1 [drawing 791]
- Cmax ([2]; iv, 1 mg/kg, 1 MPK i.v.): 193 ng/mL
- AUC(0-t) [2, 8]: 187 ng·h/mL

SMILES: O=c1[nH]c2ccc(OC[C@@H](O)CN3CCN(c4ccc(Cl)cc4)CC3)cc2o1 [drawing 792]
- Cmax ([2]; iv, 1 mg/kg, 1 MPK i.v.): 288 ng/mL
- AUC(0-t) [2, 8]: 217 ng·h/mL

SMILES: Cc1ccc(N2CCN(C[C@H](O)COc3ccc4[nH]c(=O)oc4c3)CC2)cc1 [drawing 793]
- Cmax ([2]; iv, 1 mg/kg, 1 MPK i.v.): 568 ng/mL
- AUC(0-t) [2, 8]: 364 ng·h/mL

SMILES: NC(=O)Nc1ccc(OC[C@@H](O)CN2CCN(c3ccc(Cl)cc3)C2=O)cc1 [drawing 794]
- Cmax ([2]; iv, 1 mg/kg, 1 MPK i.v.): 715 ng/mL
- AUC(0-t) [2, 9]: 787 ng·h/mL

SMILES: O=C1N(C[C@H](O)COc2ccc(O)cc2)CCN1c1ccc(Cl)cc1 [drawing 795]
- Cmax at 30 min ([2]; iv, 3 mg/kg, 3 MPK i.v.): 377 ng/mL

SMILES: O=C(COc1ccc2[nH]c(=O)[nH]c2c1)N1CCN(c2ccc(Cl)c(Cl)c2)CC1 [drawing 796]
- Cmax ([2]; iv, 1 mg/kg, 1 MPK i.v.): 576 ng/mL
- AUC(0-t) [2, 9]: 1100 ng·h/mL

SMILES: O=C(COc1ccc2[nH]c(=O)oc2c1)N1CCN(c2ccc(Cl)c(Cl)c2)CC1 [drawing 797]
- Cmax at 15 min ([2]; ip, 10 mg/kg, 10 MPK i.p., 15 m): 960 ng/mL

SMILES: O=c1[nH]c2ccc(OC[C@@H](O)CSc3nc4cc(Cl)c(Cl)cc4[nH]3)cc2o1 [drawing 798]
- Cmax at 30 min ([2]; iv, 3 mg/kg, 3 MPK i.v.): 398 ng/mL

SMILES: Oc1ccc(OC[C@@H](O)CSc2nc3cc(Cl)c(Cl)cc3[nH]2)cc1 [drawing 799]
- Cmax at 30 min ([2]; iv, 3 mg/kg, 3 MPK i.v.): 413 ng/mL

SMILES: NC(=O)Nc1ccc(OC[C@@H](O)CN2CCN(c3ccc(Cl)cc3)CC2)cc1 [drawing 810]
- Cmax ([3]; 10 mg/kg, 10 MPK, 0-8 hr p.o.): 1560 ng/mL
- Tmax ([3]; 10 mg/kg, 10 MPK, 0-8 hr p.o.): 2.67 h
- bioavailability ([3]; 10 mg/kg, 10 MPK, 0-8 hr p.o.): 146%
- AUC(0-t) ([3]; 10 mg/kg, 10 MPK, 0-8 hr p.o.): 8450 ng·h/mL

SMILES: O=c1[nH]c2ccc(OC[C@@H](O)CN3CCN(c4ccc(F)c(F)c4)CC3)cc2[nH]1 [drawing 811]
- Cmax ([3]; 5 mg/kg, 5 MPK, 0-6 hr p.o.): 558 ng/mL
- Tmax ([3]; 5 mg/kg, 5 MPK, 0-6 hr p.o.): 0.5 h
- bioavailability ([3]; 5 mg/kg, 5 MPK, 0-6 hr p.o.): 82.2%
- AUC(0-t) ([3]; 5 mg/kg, 5 MPK, 0-6 hr p.o.): 1860 ng·h/mL
